{"source": "patent US20220143116A1", "about": "(priority 2019, published 2022)", "key": {"[1]": {"test_system": "B16TK (scrambled shRNA) or B16TK (shRNA APOBEC3) tumors", "set-up": "species or system C57Bl/6 mice", "details": "mouse, in vivo"}, "B16TK cells": {"test_system": "B16TK cells", "format": "cell-based, murine"}, "B16TK-hAPOBEC3B tumors": {"test_system": "B16TK-hAPOBEC3B tumors", "set-up": "species or system C57BL/6 mice", "details": "mouse, in vivo"}, "[2]": {"test_system": "B16TK-hAPOBEC3B subcutaneous tumors", "set-up": "species or system C57BL/6 mice", "details": "mouse, in vivo"}}, "note": "“And” between values parts separate entries of the source, which are not always exact repeats. Equal values may be shown once."}
{"smiles": "Nc1nc(O)c2ncn(COC(CO)CO)c2n1", "note": "[ganciclovir]", "values": [{"measurement": "long term survivors", "setting": "[1]", "value": "0/7 and 4/7"}, {"measurement": "sensitivity of B16TK cells to treatment", "setting": "B16TK cells", "value": "sensitive"}, {"measurement": "tumor growth following GCV treatment", "setting": "B16TK-hAPOBEC3B tumors", "value": "grew significantly more quickly"}, {"measurement": "tumor growth following GCV treatment", "setting": "[2]", "value": "grew significantly more quickly"}]}
